The record followed here is ChEMBL document CHEMBL3621181, “Prokineticin Receptor Modulators May Potentially Treat Psychiatric and Neurological Disorders” (ACS Med Chem Lett, 2015).

For the test, the target named is Prokineticin receptor 1 (Homo sapiens, UniProt Q8TCW9). In words: Antagonist activity at human PKR1 expressed in rat RBL2H3 cells assessed as inhibition of PK1-stimulated intracellular calcium release incubated for 10 mins prior to PK1 stimulation by FLIPR assay. Format: functional, cell-based, RBL-2H3.
Sequence of Prokineticin receptor 1 (Q8TCW9 whole entry): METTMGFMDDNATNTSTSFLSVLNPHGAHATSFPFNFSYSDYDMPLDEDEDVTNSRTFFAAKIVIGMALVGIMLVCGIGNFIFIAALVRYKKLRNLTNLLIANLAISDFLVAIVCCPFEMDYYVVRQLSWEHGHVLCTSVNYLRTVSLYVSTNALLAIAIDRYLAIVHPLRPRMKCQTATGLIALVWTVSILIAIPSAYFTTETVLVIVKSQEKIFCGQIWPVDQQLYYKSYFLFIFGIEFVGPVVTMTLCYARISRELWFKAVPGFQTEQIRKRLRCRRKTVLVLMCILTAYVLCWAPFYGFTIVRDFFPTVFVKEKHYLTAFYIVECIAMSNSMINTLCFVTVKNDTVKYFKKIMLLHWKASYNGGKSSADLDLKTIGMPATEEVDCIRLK

The term IC50 denotes the concentration that inhibits the measured activity by half.

In the case of `COC1(c2ncc(Cl)cc2C)CCCN(C(=O)c2cn(C)nc2N)C1` (configuration not stated), the 50% inhibitory concentration (IC50) is over 9000 nM.
Under `CC(C)n1c(C2CCCN(C(=O)c3ccnc(N(C)C)c3)C2)nc2ccccc21` (configuration not stated) stands 320 nM.
